Test results reported in the supplement of paper PMC11208160.

Assay: recombinant UMI read abundance after kanamycin selection (control-corrected) (log10(CPM+1)); higher = more efficient recombination; extreme values may be limits of the assay; sequences stand for … in AGTGCAGAGAAAATCGGCCAGTTTTCTCTGCCTGCAGTCCGCATGCCGTGGGACCCCTTGGGTTCTAACCTGTTGCCTAGATTTATGCAGCGGACTGCCTTTCTCCCAAAGTGATAAACCGG…AGGTTGGTTTCACT; site = the 11-nt donor
Summary of the method: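 After plating on IPTG (0.07 mM) plus kanamycin, or unselected, in two replicates, recombinant UMIs were PCR-amplified across the donor–target junction and sequenced. The cells were Escherichia coli co-electroporated with a UMI-tagged donor and donor-binding-loop pair library and a target plasmid with a fixed target and T7-inducible IS621 bridge recombinase. Values are log10(CPM+1), with CPM averaged over replicates and scaled by control-derived factors.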
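Also: IS621 bridge recombinase in Escherichia coli cells against a fixed T5 target plasmid.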

“AGCCTAGCATGGACCGGTTTTCCCGGTAATCCGTATTTGTT (site AGCCTAGCTAC)” and “AGCCTAGCATGGACCGGTTTTCCCGGTAATCCGTATTTGTT (site AGCCTAGCTAG)” are the same in “recombinant UMI read abundance (log10)” value: 0 for the first, 0 for the second.

“AGCCTAGCATGGACCGGTTTTCCCGGTAATCCGTATTTGTT (site AGCCTAGCTAT)” and “AGCCTAGCATGGACCGGTTTTCCCGGTAATCCGTATTTGTT (site AGCCTAGCTCA)” are within 0.2 log units of each other in “recombinant UMI read abundance (log10)” value: 0.0124 for the first, 0.0329 for the second.

“AGCCTAGCATGGACCGGTTTTCCCGGTAATCCGTATTTGTT (site AGCCTAGCTGA)” and “AGCCTAGCATGGACCGGTTTTCCCGGTAATCCGTATTTGTT (site AGCCTAGCTTA)” are within 0.2 log units of each other in “recombinant UMI read abundance (log10)” value: 0 for the first, 0.00455 for the second.

“AGCCTAGCATGGACCGGTTTTCCCGGTAATCCGTATTTGTT (site AGCCTATCTAA)” and “AGCCTAGCATGGACCGGTTTTCCCGGTAATCCGTATTTGTT (site AGCCTCGCTAA)” are within 0.2 log units of each other in “recombinant UMI read abundance (log10)” value: 0.00805 for the first, 0.0288 for the second.

“AGCCTAGCATGGACCGGTTTTCCCGGTAATCCGTATTTGTT (site AGCCTGGCTAA)” and “AGCCTAGCATGGACCGGTTTTCCCGGTAATCCGTATTTGTT (site AGCCTTGCTAA)” are within 0.2 log units of each other in “recombinant UMI read abundance (log10)” value: 0.0296 for the first, 0.0186 for the second.

“AGCCTAGCATGGACCGGTTTTCCCGGTAATCCGTATTTGTT (site AGCGTAGCTAA)” and “AGCCTAGCATGGACCGGTTTTCCCGGTAATCCGTATTTGTT (site AGCTTAGCTAA)” are within 0.2 log units of each other in “recombinant UMI read abundance (log10)” value: 0.00795 for the first, 0.0228 for the second.

“AGCCTAGCATGGACCGGTTTTCCCGGTAATCCGTATTTGTT (site AGGCTAGCTAA)” and “AGCCTAGCATGGACCGGTTTTCCCGGTAATCCGTATTTGTT (site AGTCTAGCTAA)” are within 0.2 log units of each other in “recombinant UMI read abundance (log10)” value: 0.00253 for the first, 0.0113 for the second.

“AGCCTAGCATGGACCGGTTTTCCCGGTAATCCGTATTTGTT (site ATCCTAGCTAA)” and “AGCCTAGCATGGACCGGTTTTCCCGGTAATCCGTATTTGTT (site CGCCTAGCTAA)” are within 0.2 log units of each other in “recombinant UMI read abundance (log10)” value: 0.0142 for the first, 0.00222 for the second.

“AGCCTAGCATGGACCGGTTTTCCCGGTAATCCGTATTTGTT (site GGCCTAGCTAA)” and “AGCCTAGCATGGACCGGTTTTCCCGGTAATCCGTATTTGTT (site TGCCTAGCTAA)” are within 0.2 log units of each other in “recombinant UMI read abundance (log10)” value: 0.0159 for the first, 0.00782 for the second.

“AGCCTGGCATGGACCGGTTTTCCCGGTAATCCGTATTTGAC (site AGCCTGGCTGT)” and “AGCCTTTCATGGACCGGTTTTCCCGGTAATCCGTATTTGAA (site AGCCTTTCTAT)” are the same in “recombinant UMI read abundance (log10)” value: 0 for the first, 0 for the second.

“AGCCTTTCATGGACCGGTTTTCCCGGTAATCCGTATTTGAA (site AGCCTTTCTCT)” and “AGCCTTTCATGGACCGGTTTTCCCGGTAATCCGTATTTGAA (site AGCCTTTCTGT)” are within 0.2 log units of each other in “recombinant UMI read abundance (log10)” value: 0.00501 for the first, 0 for the second.

“AGCCTTTCATGGACCGGTTTTCCCGGTAATCCGTATTTGAA (site AGCCTTTCTTT)” and “AGCCTTTCATGGACCGGTTTTCCCGGTAATCCGTATTTGAC (site AACCTTTCTGT)” are the same in “recombinant UMI read abundance (log10)” value: 0 for the first, 0 for the second.

“AGCCTTTCATGGACCGGTTTTCCCGGTAATCCGTATTTGAC (site ACCCTTTCTGT)” and “AGCCTTTCATGGACCGGTTTTCCCGGTAATCCGTATTTGAC (site AGACTTTCTGT)” are the same in “recombinant UMI read abundance (log10)” value: 0 for the first, 0 for the second.

“AGCCTTTCATGGACCGGTTTTCCCGGTAATCCGTATTTGAC (site AGCATTTCTGT)” and “AGCCTTTCATGGACCGGTTTTCCCGGTAATCCGTATTTGAC (site AGCCATTCTGT)” are within 0.2 log units of each other in “recombinant UMI read abundance (log10)” value: 0.00674 for the first, 0 for the second.

“AGCCTTTCATGGACCGGTTTTCCCGGTAATCCGTATTTGAC (site AGCCCTTCTGT)” and “AGCCTTTCATGGACCGGTTTTCCCGGTAATCCGTATTTGAC (site AGCCGTTCTGT)” are the same in “recombinant UMI read abundance (log10)” value: 0 for the first, 0 for the second.

Going from “AGCCTTTCATGGACCGGTTTTCCCGGTAATCCGTATTTGAC (site AGCCTATCTGT)” to “AGCCTTTCATGGACCGGTTTTCCCGGTAATCCGTATTTGAC (site AGCCTCTCTGT)”, the “recombinant UMI read abundance (log10)” value falls from 1.73 to 0.

“AGCCTTTCATGGACCGGTTTTCCCGGTAATCCGTATTTGAC (site AGCCTGTCTGT)” and “AGCCTTTCATGGACCGGTTTTCCCGGTAATCCGTATTTGAC (site AGCCTTACTGT)” are the same in “recombinant UMI read abundance (log10)” value: 0 for the first, 0 for the second.

“AGCCTTTCATGGACCGGTTTTCCCGGTAATCCGTATTTGAC (site AGCCTTCCTGT)” and “AGCCTTTCATGGACCGGTTTTCCCGGTAATCCGTATTTGAC (site AGCCTTGCTGT)” are the same in “recombinant UMI read abundance (log10)” value: 0 for the first, 0 for the second.

“AGCCTTTCATGGACCGGTTTTCCCGGTAATCCGTATTTGAC (site AGCCTTTCTAT)” and “AGCCTTTCATGGACCGGTTTTCCCGGTAATCCGTATTTGAC (site AGCCTTTCTCT)” are within 0.2 log units of each other in “recombinant UMI read abundance (log10)” value: 0 for the first, 0.00414 for the second.

“AGCCTTTCATGGACCGGTTTTCCCGGTAATCCGTATTTGAC (site AGCCTTTCTGA)” and “AGCCTTTCATGGACCGGTTTTCCCGGTAATCCGTATTTGAC (site AGCCTTTCTGC)” are the same in “recombinant UMI read abundance (log10)” value: 0 for the first, 0 for the second.

“AGCCTTTCATGGACCGGTTTTCCCGGTAATCCGTATTTGAC (site AGCCTTTCTGG)” and “AGCCTTTCATGGACCGGTTTTCCCGGTAATCCGTATTTGAC (site AGCCTTTCTGT)” are the same in “recombinant UMI read abundance (log10)” value: 0 for the first, 0 for the second.

“AGCCTTTCATGGACCGGTTTTCCCGGTAATCCGTATTTGAC (site AGCCTTTCTTT)” and “AGCCTTTCATGGACCGGTTTTCCCGGTAATCCGTATTTGAC (site AGCGTTTCTGT)” are the same in “recombinant UMI read abundance (log10)” value: 0 for the first, 0 for the second.

“AGCCTTTCATGGACCGGTTTTCCCGGTAATCCGTATTTGAC (site AGCTTTTCTGT)” and “AGCCTTTCATGGACCGGTTTTCCCGGTAATCCGTATTTGAC (site AGGCTTTCTGT)” are the same in “recombinant UMI read abundance (log10)” value: 0 for the first, 0 for the second.

“AGCCTTTCATGGACCGGTTTTCCCGGTAATCCGTATTTGAC (site AGTCTTTCTGT)” and “AGCCTTTCATGGACCGGTTTTCCCGGTAATCCGTATTTGAC (site ATCCTTTCTGT)” are the same in “recombinant UMI read abundance (log10)” value: 0 for the first, 0 for the second.

“AGCCTTTCATGGACCGGTTTTCCCGGTAATCCGTATTTGAC (site CGCCTTTCTGT)” and “AGCCTTTCATGGACCGGTTTTCCCGGTAATCCGTATTTGAC (site GGCCTTTCTGT)” are the same in “recombinant UMI read abundance (log10)” value: 0 for the first, 0 for the second.

“AGCCTTTCATGGACCGGTTTTCCCGGTAATCCGTATTTGAC (site TGCCTTTCTGT)” and “AGCCTTTCATGGACCGGTTTTCCCGGTAATCCGTATTTGCC (site AGCCTTTCTGA)” are the same in “recombinant UMI read abundance (log10)” value: 0 for the first, 0 for the second.

First: AGCCTTTCATGGACCGGTTTTCCCGGTAATCCGTATTTGCC (site AGCCTTTCTGC)
Second: AGCCTTTCATGGACCGGTTTTCCCGGTAATCCGTATTTGCC (site AGCCTTTCTGG)
The “recombinant UMI read abundance (log10)” value of the first is lower: 0 for the first, 1.05 for the second.

Going from “AGCCTTTCATGGACCGGTTTTCCCGGTAATCCGTATTTGCC (site AGCCTTTCTGT)” to “AGCGCAGCATGGACCGGTTTTCCCGGTAATCCGTATTTGCG (site AGCGCAGCTCG)”, the “recombinant UMI read abundance (log10)” value rises from 0 to 1.01.

For “AGCGCAGCATGGACCGGTTTTCCCGGTAATCCGTATTTGGG (site AGCACAGCTCC)”, the “recombinant UMI read abundance (log10)” value was 0.
